Molecular target: T1, Nuclear factor erythroid 2-related factor 2 (Homo sapiens, UniProt Q16236)
T1 sequence (Q16236 whole entry): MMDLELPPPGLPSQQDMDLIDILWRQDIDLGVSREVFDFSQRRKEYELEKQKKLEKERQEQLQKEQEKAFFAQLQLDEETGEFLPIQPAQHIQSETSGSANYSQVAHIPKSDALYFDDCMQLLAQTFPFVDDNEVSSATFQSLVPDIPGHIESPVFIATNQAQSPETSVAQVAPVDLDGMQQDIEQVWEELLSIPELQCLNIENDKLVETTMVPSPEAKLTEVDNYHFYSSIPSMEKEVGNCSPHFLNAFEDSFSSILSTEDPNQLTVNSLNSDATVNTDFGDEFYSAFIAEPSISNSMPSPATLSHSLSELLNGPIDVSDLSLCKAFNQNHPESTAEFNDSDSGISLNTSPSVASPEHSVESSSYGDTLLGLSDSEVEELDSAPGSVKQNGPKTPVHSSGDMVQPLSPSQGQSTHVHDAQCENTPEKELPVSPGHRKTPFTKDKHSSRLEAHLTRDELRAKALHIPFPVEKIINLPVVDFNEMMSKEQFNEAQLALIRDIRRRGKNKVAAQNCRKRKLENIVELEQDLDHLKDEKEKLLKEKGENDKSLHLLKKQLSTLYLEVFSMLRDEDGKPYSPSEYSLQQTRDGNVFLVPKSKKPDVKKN
Experiment: Inhibition of NRF2 in human MDA-MB-231 cells harboring ARE-GFP-Luc assessed as reduction in ARE-luciferase activity after 16 hrs by firefly luciferase reporter gene assay

IC50: 29 nM
Compound: COC(=O)[C@@]12OC[C@]34[C@H]([C@@H](O)[C@@H]1O)[C@@]1(C)CC(=O)C(O)=C(C)[C@@H]1C[C@H]3OC(=O)[C@H](OC(=O)C=C(C)C)[C@@H]24
